Results from patent US20110269812A1, “NOVEL BENZYLIDENE-INDOLINONE AND THEIR MEDICAL AND DIAGNOSTIC USES” (Agency for Science, Technology and Research, priority 2008, published 2011).
Where two headings read alike, the source gives them in different places.

Legend:
NQO1 = test: Induction of NQO1 (QR) activity in Hepa1c1c7 cells; conditions: for NQO1 induction ratio: read off from plot
[1] = tested on: MCF7 (human breast cancer cell line); test: Antiproliferative MTT assay, MCF7; assay type: cell-based; conditions: 72 h incubation, mean ± SD, n = 3, read-out: IC50 MCF-7
Description: (§1) The antiproliferative activity of the compounds according to the invention was determined by the MTT assay on the following cell lines: MCF7 (human breast cancer cell line), HCT116 (human colon cancer cell line), and CCL186 (normal human diploid embryonic lung fibroblast). […] MCF7 and CCL186 cells were cultured in Eagle's Minimum Essential Medium (EMEM) with 1 mM sodium pyruvate, 1.5 g/L sodium bicarbonate, 2 mM L-glutamine supplemented with 10% FBS and 0.01% antibiotics. HCT116 cells were cultured in McCoy's 5A Medium with 2.2 g/L sodium bicarbonate supplemented with […] and 0.01% antibiotics. Cells were plated at the following densities: 10000 cells/well (MCF7), 4000 cells/well (HCT116), 5000 cells/well (CCL186). They were grown for 24 h in a 96-well plate, with 100 μl of corresponding medium in each well. The test compounds were prepared in DMSO and diluted to a series of concentrations with medium. Not more than 1% DMSO (final concentration) was present in each well. The test compounds were incubated with the cells for 72 h, after which 100 μl MTT solution (0.5 mg/ml in 1× PBS) was added for 3 h and the cells lysed to release the formazan product. The latter was dissolved in DMSO (150 μl) and absorbance determined within 30 min at 590 nm on a microtitre plate reader. Cell survival was given by the expression:
(§2) Cell survival (%)=[(Acells+test compound−Ablank)/(Auntreated cells−Ablank)]×100
(§3) where A is the absorbance of formazan measured at 590 nm in the test (Acells+test compound), control (Auntreated cells) or blank (Ablank) wells. Each concentration of test compound was evaluated on 3 separate occasions. […] The MTT assay was also carried out on Hepa1c1c7 cells for the purpose of determining cytotoxicity of test compounds. The same procedure was adopted except that the incubation period of compound with cells was 48 h, instead of 72 h.
(§4) The compounds were initially screened at a fixed concentration of 10 μM on the human cancer cell lines HCT116 and MCF7 cells.

Hepa1c1c7 cells = test: MTT growth inhibition / cytotoxicity on Hepa1c1c7 cells; assay type: cell-based, murine; conditions: Mus musculus, Hepa-1c1c7, 48 h, highest concentration tested 25 μM
Description: as §1, §2, §3

HCT116 cells = test: Cell cycle of synchronized HCT116 cells by flow cytometry (FACS); assay type: cell-based, human; conditions: for Proportion of cells in G1 / Proportion of cells in G2/M / Proportion of cells in S / Proportion of cells in Sub-G1: 24 h; for type of cell cycle arrest caused: HCT116 cells, ≈1.5 × IC50, 24 h
Description: HCT116 cells were grown to confluence and maintained in this state for at least 5 days without change of media. The serum starved cells were then trypsinized and subcultured at densities of 5×10^5 cells/well in six-well plates. Growth media contained 10% fetal calf serum. The test compound was added either immediately to cells synchronized at G1 phase, or 24 h later when cells were synchronized at G2 phase. The cells were incubated with test compound for 24 h from the time of addition. After this time, the cells were harvested, trypsinized and fixed in 70% ice-cold ethanol for a minimum of 24 h. After centrifugation, the supernatant was discarded and the pellet was treated with RNase A (200 μg/ml) for 30 min at room temperature, followed by cell staining using propidium iodide at a final concentration of 20 μg/ml. The stained cells were then analyzed for cell cycle distribution in the sub-G1, G1, S and G2/M phases on a Dako Cytomation Cyan LX (Dako Colorado, Fort Collins, Colo., USA) equipped with an argon solid state laser (488 nm) using the Summit (version 4.3) software. Compounds were tested at a concentration of ≈1.5×IC50, with IC50 determined by the MTT assay on HCT116 cells.
To have a better understanding of the mechanisms underlying the antiproliferative activities of the compounds listed in Table 5, their effects on the cell cycle was investigated by fluorescence-activated cell sorter (FACS) analysis using flow cytometry. The experiments were designed to examine the effects of the test compounds on synchronized cell populations at the GI or G2/M phase. G1 synchronized cells were obtained by growing cells to confluence for up to 5 days and then stimulating their re-entry into the cell cycle by sub-culturing at lower densities. After 24 hours of growth, these cells would be aligned at the G2/M phase.
Cells aligned at the G2/M phase were similarly treated.

HuH7 = test: cells; assay type: cell-based, human; conditions: for IC50 / viability at 10 µM: Homo sapiens; for IC50: Huh-7, 72 h, read-out: IC50 HuH7; for viability at 10 µM: Huh-7, 72 h, vs vehicle-treated controls, read-out: Percentage viability HuH7; for SR(HuH7/THLE2) safety ratio: percentage viability at 10 μM normalized with THLE2
Description: (§5) Cells were plated at 5000-7000 cells/per well and incubated for 24 h before treatment. […] Cell Titer-Glo (Promega, Madison, Wis.) assay was performed according to manufacturer's instruction with luminescence detected on SpectraMax M5 (Molecular Devices, Sunnyvale, Calif.). Data was expressed as percentage of viability vs. vehicle-treated controls.
(§6) The anti-cancer potential of these compounds against HCC were tested using a phenotypic assay where compounds were screened over 100-fold concentration range (0.1 to 10 μM) using two representative liver cancer cell lines, HepG2 and HuH7. Additionally, THLE2 was employed as normal hepatocyte cell line to differentiate anti-cancer potential from non-specific cytotoxicities.
(§7) Cell viability assay shown in FIG. 2 was analyzed by Prism5 for the determination of respective IC50 values.
(§8) Cell viability was determined as described previous in Table 7. Percentage viability at 10 μM treatments was determined and safety ratios were calculated by normalizing survival in HCC cell lines to THLE2.

HepG2 = test: cells; assay type: cell-based, human; conditions: for IC50 / viability at 10 µM: Homo sapiens; for IC50: HepG2, 72 h, read-out: IC50 HepG2; for viability at 10 µM: HepG2, 72 h, vs vehicle-treated controls, read-out: Percentage viability HepG2; for SR(HepG2/THLE2) safety ratio: percentage viability at 10 μM normalized with THLE2
Description: as §5, §6, §7, §8

[2] = tested on: CCL186 (normal human diploid embryonic lung fibroblast); test: Antiproliferative MTT assay, CCL186; assay type: cell-based; conditions: for IC50: Homo sapiens, CCL186, MTT, 72 h incubation, mean ± SD, n = 3, read-out: IC50 CCL-186
Description: as §1, §2, §3

THLE2 = test: Cell viability assay (Cell Titer-Glo), THLE2 normal hepatocyte cell line; assay type: cell-based; conditions: Homo sapiens, THLE-2, 72 h, read-out: IC50 THLE2
Description: as §5, §6, §7

[3] = tested on: HCT116 (human colon cancer cell line); test: Antiproliferative MTT assay, HCT116; assay type: cell-based; conditions: 72 h incubation, mean ± SD
Description: as §1, §2, §3, §4

[4] = HCT 116 cells released from G1 Block, 5 μM
[5] = HCT 116 cells released from G2 Block, 5 μM
[6] = HCT 116 cells released from G1 Block, 15 μM
[7] = HCT 116 cells released from G2 Block, 15 μM

| Compound | IC50 [1] | IC50 (Hepa1c1c7 cells) | type of cell cycle arrest caused (HCT116 cells) | IC50 (HuH7) | viability at 10 µM (HuH7) | SR(HuH7/THLE2) safety ratio (HuH7) | IC50 (HepG2) | viability at 10 µM (HepG2) | SR(HepG2/THLE2) safety ratio (HepG2) | melting point | IC50 [2] | IC50 (THLE2) | IC50 ([3]; n = 3, read-out: IC50 HCT-116) | further results |
| --- | --- | --- | --- | --- | --- | --- | --- | --- | --- | --- | --- | --- | --- | --- |
| COc1ccc2c(c1)NC(=O)/C2=C/c1cccc(C(F)(F)F)c1 [Compound 48, (E)-6-Methoxy-3-(3-(trifluoromethyl)benzylidene)indolin-2-one] | 1.9 ± 0.5 µM | 2.6 µM | G2 arrest | 2.3 µM | 27.3 ± 0.5% | 1.27 | 0.4 µM | 14.5 ± 1.3% | 2.40 | 157 to 160 °C | 5.4 ± 0.3 µM | 3.6 µM | 3.8 ± 0.6 µM | NQO1 induction ratio (NQO1; 0.5 μM): 4.22; NQO1/CYP1A1 Quotient (NQO1; both ratios at 0.5 μM): 3.10; Proportion of cells in G1 (HCT116 cells; [4]): 17.50%; Proportion of cells in G2/M (HCT116 cells; [4]): 59.16%; Proportion of cells in S (HCT116 cells; [4]): 19.12%; Proportion of cells in Sub-G1 (HCT116 cells; [4]): 4.39%; Proportion of cells in G1 (HCT116 cells; [5]): 30.55%; Proportion of cells in G2/M (HCT116 cells; [5]): 31.58%; Proportion of cells in S (HCT116 cells; [5]): 17.96%; Proportion of cells in Sub-G1 (HCT116 cells; [5]): 20.69% |
| O=C1Nc2cc(F)ccc2/C1=C\c1cccc(C(F)(F)F)c1 [Compound 46, (E)-6-Fluoro-3-(3-(trifluoromethyl)benzylidene)indolin-2-one] | 8.4 ± 0.3 µM | 2.2 µM | G1 arrest | 1.1 µM | 11.3 ± 1% | 6.39 | 0.4 µM | 4.2 ± 0.3% | 17.19 | 132 to 135 °C | 7.5 ± 0.7 µM | > 10 µM | 8.9 ± 0.3 µM | NQO1 induction ratio (NQO1; 0.05 μM): 3.31; NQO1/CYP1A1 Quotient (NQO1; both ratios at 0.05 μM): 2.69; IC50 ([1]; Homo sapiens, MCF7, 72 h): < 10 µM; Proportion of cells in G1 (HCT116 cells; [6]): 64.93%; Proportion of cells in G2/M (HCT116 cells; [6]): 14.58%; Proportion of cells in S (HCT116 cells; [6]): 8.04%; Proportion of cells in Sub-G1 (HCT116 cells; [6]): 12.68%; Proportion of cells in G1 (HCT116 cells; [7]): 64.15%; Proportion of cells in G2/M (HCT116 cells; [7]): 25.00%; Proportion of cells in S (HCT116 cells; [7]): 8.82%; Proportion of cells in Sub-G1 (HCT116 cells; [7]): 2.49%; selectivity ratio: IC50 CCL186/IC50 MCF7 or IC50 CCL186/IC50 HCT116 ([2]; normal vs cancer cell line): ~1; IC50 ([3]; Homo sapiens, HCT-116, 72 h, n = 3): < 10 µM |
